Data as given in patent US7745578B2, “Fugetactic proteins, compositions and methods of use” (The General Hospital Corporation, priority 2003, dated 2010).

Assays:
[1] = system: EL4 cells; experiment: Viability of EL4 cells after inhibitor treatment; type: cell-based; details: EL4 cells in HSF, Brefeldin A 10 μg/ml for 24 hours
Procedure: EL4CM24 was heat inactivated at 42° C. for 1 hour prior to being used in the transmigration assays described above. […] EL4CM24 was incubated with hydrated proteinase K agarose (Sigma-Aldrich; St. Louis, Mo.) at 1 mg/ml for 1 hour at 37° C. in a 5% CO2 humidified incubator then filtered through a 0.2 μm pore-size filter prior to being used in the transmigration and intraperitoneal assays. Murine T-cells were incubated with pertussis toxin (Sigma-Aldrich; St. Louis, Mo.) at 100 ng/ml for 1 hour at 37° C. in a 5% CO2 humidified incubator, prior to being used in the transmigration assays. EL4CM24 was incubated with radiciol (Sigma-Aldrich; St. Louis, Mo.) for two hours at room temperature at concentrations 0.1 μg/ml and 7.3 μg/ml. The transmigration was then carried out using the EL4CM24 mixture. As a control, transmigration assays were also carried out using gradients of HSF media supplemented with 7.3 μg/ml of radicol or using EL4CM24-radicicol mixtures from which excess radiciol had been removed using 5 kDa size exclusion Centricon Ultrafree filters (Millipore; Billerica, Mass.). EL4 cells in HSF were also exposed to Geldanamycin at 1.2 μM or 200 nM prior to use of the CM in transmigration assays. EL4 cells in HSF were also exposed to Brefeldin A at 10 μg/ml overnight for a full 24 hours prior to use of the EL4CM24 in transmigration assays. […]

[2] = system: murine T-cells; experiment: Quantitative transmigration assay (ChemoTx), negative gradients of EL4 conditioned media; type: cell-based, C57BL/6 mice; details: compared with untreated EL4CM24
Procedure: C57BL/6 mice (4 to 8 weeks old) (Jackson Laboratories; Bar Harbor Me.) were euthanized, and dissection of superficial cervical, axillary, brachial and inguinal lymph nodes was performed under sterile conditions. Dissected lymph nodes were then physically disaggregated and a cell suspension generated. The cell suspension was then enriched for T cells by depletion of non-T cells using MACS Pan T cell isolation kit for mouse leukocytes (Miltenyi Biotec; Auburn, Calif.).
Quantitative transmigration assays were carried out as described previously. In brief, ChemoTx chemotaxis 30 μl well plates with 3 μm pore size filters (Neuro Probe; Gaithersburg, Md.) were used. 20,000 murine T-cells were loaded in the upper chamber of the ChemoTx system and subjected to positive, negative and uniform gradients of EL4CM24 in a standard checkerboard analysis of cell migration. The peak concentrations used in each gradient were 1 in 2, 1 in 10, and 1 in 100 dilutions of EL4CM24 with 10.5 media; Isocove's supplemented with 0.5% fetal calf serum, 50 units/ml Penicillin, 50 μg/ml Streptomycin and 292 μg/ml L-Glutamine (Mediatech; Herndon, Va.). […] The chemotactic index was calculated as the quotient of the average number of cells migrating in response to EL4CM24 and the average number of cells migrating in response to media alone. […]

[3] = system: T-cell infiltration into the peritoneal cavity; experiment: Intraperitoneal injection of conditioned media and analysis of lymphocyte infiltration; parameters: species or system BALB/c-DO11 mice; details: after immunoprecipitation of HSP90α from EL-4 CM with a monoclonal antibody; immune challenge in vivo
Procedure: BALB/c-DO11 mice (kindly provided by Dr. Iacomini, Massachusetts General Hospital) were primed by subcutaneous injection with 100 μl of ovalbumin (ICN Biomedicals; Costa Mesa, Calif.) dissolved in Freund's complete adjuvant (Pierce Biotechnology; Rockford, Ill.) at a concentration 1 mg/ml. Three days later, mice were injected intraperitoneally with 250 μl of ovalbumin dissolved in sterile water at concentration a 0.4 mg/ml. 24 hours later, experimental mice were injected intraperitoneally with 250 μl of EL4CM24, while control mice were injected intraperitoneally with 250 μl of HSF media or protease treated EL4CM24. 24 hours later, cells were extracted from the intraperitoneal space by lavage with 5 ml of cold phosphate buffered saline (Mediatech; Herndon, Va.) and aspiration with a 10 ml syringe and 21-gauge needle. Peritoneal lavage cells were counted on a hemocytometer and then immuno-stained for anti-CD3, CD4, CD8 and TCR-kj-OVA lymphocyte expression (BD BioSciences; San Jose, Calif.) and anti-CD4 (Caltag Laboratories; Burlingame, Calif.) with antibodies labelled with Percp and PE (phytoerythrin) known fluorophor labels. T-cells expressing CD3+, CD3+ CD4+, CD3+ CD8+, CD3+ TCR-kj-OVA were then determined by FACS analysis.

| Compound | level of migration of lymphocytes [2] | other results |
| --- | --- | --- |
| C[C@H]1CCC/C=C/[C@@H]2C[C@H](O)C[C@H]2[C@H](O)/C=C/C(=O)O1 [Brefeldin A] |  | viability [1]: Greater than 65% |
| C[C@@H]1C[C@H]2O[C@@H]2/C=C\C=C\C(=O)Cc2c(Cl)c(O)cc(O)c2C(=O)O1 [radicicol] | not significantly reduced |  |
| HSP90α: heat shock protein in EL-4 conditioned medium, removed by immunoprecipitation with a monoclonal antibody |  | reduction in the fugetactic effect of the CM on T-cells infiltrating the peritoneal cavity [3]: four-fold reduction |
| pertussis toxin | significantly reduced |  |
